Reference: ChEMBL document CHEMBL4627344, “Synthesis, biological evaluation and virtual screening of some acridone derivatives as potential anticancer agents” (2020)

Assays:
Type in all cases: functional
NCI-H522 [1] = assay: Antiproliferative activity against human NCI-H522 cells assessed as inhibition of cell growth at 10 uM measured after 48 hrs by SRB assay relative to control; settings: NCI-H522, 48 h, read-out: GI
HCC 2998 [2] = assay: Antiproliferative activity against human HCC2998 cells assessed as inhibition of cell growth at 10 uM measured after 48 hrs by SRB assay relative to control; settings: HCC 2998, 48 h, read-out: GI
SK-MEL-2 = assay: Antiproliferative activity against human SK-MEL-2 cells assessed as inhibition of cell growth measured after 48 hrs by SRB assay; settings: SK-MEL-2, 48 h
HCT-15 = assay: Antiproliferative activity against human HCT15 cells assessed as inhibition of cell growth measured after 48 hrs by SRB assay; settings: HCT-15, 48 h
786-0 = assay: Antiproliferative activity against human 786-0 cells assessed as inhibition of cell growth measured after 48 hrs by SRB assay; settings: 786-0, 48 h
HT-29 = assay: Antiproliferative activity against human HT-29 cells assessed as inhibition of cell growth measured after 48 hrs by SRB assay; settings: HT-29, 48 h
UACC-62 [3] = assay: Antiproliferative activity against human UACC62 cells assessed as inhibition of cell growth measured after 48 hrs by SRB assay; settings: UACC-62, 48 h
MDA-MB-468 [4] = assay: Antiproliferative activity against human MDA-MB-468 cells assessed as inhibition of cell growth measured after 48 hrs by SRB assay; settings: MDA-MB-468, 48 h
K562 = assay: Antiproliferative activity against human K562 cells assessed as inhibition of cell growth measured after 48 hrs by SRB assay; settings: K562, 48 h
T47D = assay: Antiproliferative activity against human T47D cells assessed as inhibition of cell growth measured after 48 hrs by SRB assay
IGROV-1 = assay: Antiproliferative activity against human IGROV1 cells assessed as inhibition of cell growth measured after 48 hrs by SRB assay; settings: IGROV-1, 48 h
NCI-H460 = assay: Antiproliferative activity against human NCI-H460 cells assessed as inhibition of cell growth measured after 48 hrs by SRB assay; settings: NCI-H460, 48 h
CAKI-1 = assay: Antiproliferative activity against human CAKI-1 cells assessed as inhibition of cell growth measured after 48 hrs by SRB assay; settings: CAKI-1, 48 h
COLO 205 = assay: Antiproliferative activity against human COLO205 cells assessed as inhibition of cell growth measured after 48 hrs by SRB assay; settings: COLO 205, 48 h
NCI/ADR-RES = assay: Antiproliferative activity against human NCI-ADR-RES cells assessed as inhibition of cell growth at 10 uM measured after 48 hrs by SRB assay relative to control; settings: read-out: GI
CCRF-CEM [5] = assay: Antiproliferative activity against human CCRF-CEM cells assessed as inhibition of cell growth measured after 48 hrs by SRB assay
OVCAR-8 = assay: Antiproliferative activity against human OVCAR8 cells assessed as inhibition of cell growth measured after 48 hrs by SRB assay; settings: OVCAR-8, 48 h
M14 = assay: Antiproliferative activity against human M14 cells assessed as inhibition of cell growth measured after 48 hrs by SRB assay; settings: M14, 48 h
MDA-MB-468 [6] = assay: Antiproliferative activity against human MDA-MB-468 cells assessed as inhibition of cell growth at 10 uM measured after 48 hrs by SRB assay relative to control; settings: MDA-MB-468, 48 h, read-out: GI
Hs-578T = assay: Antiproliferative activity against human Hs 578T cells assessed as inhibition of cell growth measured after 48 hrs by SRB assay
NCI-H522 [7] = assay: Antiproliferative activity against human NCI-H522 cells assessed as inhibition of cell growth measured after 48 hrs by SRB assay; settings: NCI-H522, 48 h
SF-539 [8] = assay: Antiproliferative activity against human SF539 cells assessed as inhibition of cell growth at 10 uM measured after 48 hrs by SRB assay relative to control; settings: SF-539, 48 h, read-out: GI
UACC-62 [9] = assay: Antiproliferative activity against human UACC62 cells assessed as inhibition of cell growth at 10 uM measured after 48 hrs by SRB assay relative to control; settings: UACC-62, 48 h, read-out: GI
SF-539 [10] = assay: Antiproliferative activity against human SF539 cells assessed as inhibition of cell growth measured after 48 hrs by SRB assay; settings: SF-539, 48 h
LOX IMVI = assay: Antiproliferative activity against human LOXIMVI cells assessed as inhibition of cell growth measured after 48 hrs by SRB assay
DU-145 = assay: Antiproliferative activity against human DU145 cells assessed as inhibition of cell growth measured after 48 hrs by SRB assay; settings: DU-145, 48 h
MDA-MB-231 = assay: Antiproliferative activity against human MDA-MB-231 cells assessed as inhibition of cell growth at 10 uM measured after 48 hrs by SRB assay relative to control; settings: MDA-MB-231, 48 h, read-out: GI
SN12C = assay: Antiproliferative activity against human SN12C cells assessed as inhibition of cell growth measured after 48 hrs by SRB assay
A549 = assay: Antiproliferative activity against human A549 cells assessed as inhibition of cell growth measured after 48 hrs by SRB assay; settings: A549, 48 h
CCRF-CEM [11] = assay: Antiproliferative activity against human CCRF-CEM cells assessed as inhibition of cell growth at 10 uM measured after 48 hrs by SRB assay relative to control; settings: read-out: GI
HL-60(TB) = assay: Antiproliferative activity against human HL-60(TB) cells assessed as inhibition of cell growth at 10 uM measured after 48 hrs by SRB assay relative to control; settings: HL-60, 48 h, read-out: GI
OVCAR-5 [12] = assay: Antiproliferative activity against human OVCAR5 cells assessed as inhibition of cell growth at 10 uM measured after 48 hrs by SRB assay relative to control; settings: OVCAR-5, 48 h, read-out: GI
A498 = assay: Antiproliferative activity against human A498 cells assessed as inhibition of cell growth at 10 uM measured after 48 hrs by SRB assay relative to control; settings: A498, 48 h, read-out: GI
U-251 = assay: Antiproliferative activity against human U251 cells assessed as inhibition of cell growth measured after 48 hrs by SRB assay; settings: U-251, 48 h
OVCAR-5 [13] = assay: Antiproliferative activity against human OVCAR5 cells assessed as inhibition of cell growth measured after 48 hrs by SRB assay; settings: OVCAR-5, 48 h
NCI-H226 = assay: Antiproliferative activity against human NCI-H226 cells assessed as inhibition of cell growth measured after 48 hrs by SRB assay; settings: NCI-H226, 48 h
HCC 2998 [14] = assay: Antiproliferative activity against human HCC2998 cells assessed as inhibition of cell growth measured after 48 hrs by SRB assay; settings: HCC 2998, 48 h

| SMILES | inhibition of growth at 10 µM (NCI-H522 [1]) | inhibition of growth at 10 µM (HCC 2998 [2]) | GI50 (SK-MEL-2) | GI50 (HCT-15) | GI50 (786-0) | GI50 (HT-29) | GI50 (UACC-62 [3]) | GI50 (K562) | GI50 (IGROV-1) | GI50 (NCI-H460) | GI50 (CAKI-1) | GI50 (COLO 205) | inhibition of growth at 10 µM (NCI/ADR-RES) | GI50 (CCRF-CEM [5]) | GI50 (OVCAR-8) | GI50 (M14) | inhibition of growth at 10 µM (MDA-MB-468 [6]) | GI50 (Hs-578T) | GI50 (NCI-H522 [7]) | inhibition of growth at 10 µM (SF-539 [8]) | other results |
| --- | --- | --- | --- | --- | --- | --- | --- | --- | --- | --- | --- | --- | --- | --- | --- | --- | --- | --- | --- | --- | --- |
| COc1ccc2nc3c(cc2c1)C(=O)CC(C(F)(F)F)C3 (configuration not stated) | 68.1% | 16% | 802 nM | 1370 nM | 6570 nM | 387 nM | 697 nM | 437 nM | 769 nM | 2610 nM | 690 nM | 1160 nM | 81.1% | 238 nM | 2040 nM | 238 nM | 64.4% | 3350 nM | 582 nM | 77.4% | GI50 (MDA-MB-468 [4]): 1870 nM; GI50 (T47D): 3290 nM; inhibition of growth at 10 µM (UACC-62 [9]): 60.2%; GI50 (SF-539 [10]): 1890 nM; GI50 (LOX IMVI): 3080 nM; GI50 (DU-145): 849 nM; inhibition of growth at 10 µM (MDA-MB-231): 40%; GI50 (SN12C): 823 nM; GI50 (A549): 3030 nM; inhibition of growth at 10 µM (CCRF-CEM [11]): 90.1%; inhibition of growth at 10 µM (HL-60(TB)): 115%; inhibition of growth at 10 µM (OVCAR-5 [12]): 42.3%; inhibition of growth at 10 µM (A498): 108% |
| COc1ccc2nc3c(cc2c1)C(=O)CC(c1ccccc1)C3 (configuration not stated) | 84.6% | 8.74% | 777 nM | 2680 nM | 4370 nM | 428 nM | 728 nM | 344 nM | 2310 nM | 1710 nM | 525 nM | 608 nM | 86.8% | 322 nM | 1060 nM | 259 nM | 31.7% | 1000 nM | 471 nM | 92.1% | GI50 (T47D): 3650 nM; inhibition of growth at 10 µM (UACC-62 [9]): 63.1%; GI50 (SF-539 [10]): 1150 nM; GI50 (LOX IMVI): 887 nM; GI50 (DU-145): 593 nM; inhibition of growth at 10 µM (MDA-MB-231): 45.4%; GI50 (SN12C): 639 nM; GI50 (A549): 2070 nM; inhibition of growth at 10 µM (CCRF-CEM [11]): 89.3%; inhibition of growth at 10 µM (HL-60(TB)): 102%; inhibition of growth at 10 µM (OVCAR-5 [12]): 38.8%; inhibition of growth at 10 µM (A498): 113% |
| O=C1CC(c2ccccc2)Cc2nc3ccc(Br)cc3cc21 (configuration not stated) | 104% | 73% | 238 nM | 528 nM | 784 nM | 205 nM | 444 nM | 175 nM | 423 nM | 344 nM | 207 nM | 261 nM | 82.9% | 49.8 nM | 461 nM | 50.5 nM | 99.7% | 411 nM | 236 nM | 98.4% | GI50 (U-251): 553 nM; GI50 (MDA-MB-468 [4]): 2840 nM; GI50 (OVCAR-5 [13]): 825 nM; GI50 (NCI-H226): 2250 nM; inhibition of growth at 10 µM (UACC-62 [9]): 63.8%; GI50 (SF-539 [10]): 241 nM; GI50 (LOX IMVI): 707 nM; GI50 (DU-145): 274 nM; inhibition of growth at 10 µM (MDA-MB-231): 86.8%; GI50 (SN12C): 526 nM; GI50 (A549): 419 nM; inhibition of growth at 10 µM (CCRF-CEM [11]): 91.5%; inhibition of growth at 10 µM (HL-60(TB)): 128%; inhibition of growth at 10 µM (OVCAR-5 [12]): 72.8%; GI50 (HCC 2998 [14]): 2580 nM; inhibition of growth at 10 µM (A498): 112% |
| O=C1CC(c2ccccc2)Cc2nc3ccc(Cl)cc3cc21 (configuration not stated) | 97% | 94.7% | 320 nM | 588 nM | 838 nM | 271 nM | 333 nM | 119 nM | 375 nM | 345 nM | 151 nM | 346 nM | 92% | 40 nM | 534 nM | 38 nM | 89.8% | 306 nM | 314 nM | 112% | GI50 (U-251): 729 nM; GI50 (MDA-MB-468 [4]): 2470 nM; GI50 (OVCAR-5 [13]): 1020 nM; GI50 (NCI-H226): 1610 nM; inhibition of growth at 10 µM (UACC-62 [9]): 70.7%; GI50 (SF-539 [10]): 219 nM; GI50 (LOX IMVI): 558 nM; GI50 (DU-145): 334 nM; inhibition of growth at 10 µM (MDA-MB-231): 80.5%; GI50 (SN12C): 533 nM; GI50 (A549): 420 nM; inhibition of growth at 10 µM (CCRF-CEM [11]): 89.6%; inhibition of growth at 10 µM (HL-60(TB)): 121%; inhibition of growth at 10 µM (OVCAR-5 [12]): 73.6%; GI50 (HCC 2998 [14]): 2890 nM; inhibition of growth at 10 µM (A498): 117% |
| O=C1CC(c2ccccc2)Cc2nc3c(Br)cc(Br)cc3cc21 (configuration not stated) | 91.5% | 93.5% | 49.2 nM | 312 nM | 813 nM | 233 nM | 338 nM | 67.6 nM | 125 nM | 42.3 nM | 145 nM | 152 nM | 113% | 88.9 nM | 507 nM | 284 nM | 116% | 191 nM | 137 nM | 93.1% | GI50 (U-251): 421 nM; GI50 (MDA-MB-468 [4]): 1280 nM; GI50 (T47D): 851 nM; GI50 (OVCAR-5 [13]): 461 nM; GI50 (NCI-H226): 241 nM; inhibition of growth at 10 µM (UACC-62 [9]): 61.7%; GI50 (SF-539 [10]): 192 nM; GI50 (LOX IMVI): 758 nM; GI50 (DU-145): 82.6 nM; inhibition of growth at 10 µM (MDA-MB-231): 84.9%; GI50 (SN12C): 661 nM; GI50 (A549): 79.2 nM; inhibition of growth at 10 µM (HL-60(TB)): 95.4%; inhibition of growth at 10 µM (OVCAR-5 [12]): 52.9%; GI50 (HCC 2998 [14]): 282 nM |
